Key:
RSV A2 = assay: RSV plaque reduction assay; format: cell-based, respiratory syncytial virus (RSV); conditions: Hep-G2 cells, RSV A2, mean of at least two experiments
Procedure, shortened: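 RSV A2 (100 PFU/well) premixed with eight serial compound dilutions, added to confluent Hep-G2 monolayers for 2 h at 37° C, then held 2 days under CMC overlay containing compound (DMEM, 2% FBS). Plaques immunostained (HRP/TrueBlue) and counted; EC50 is 50% reduction versus virus control from 4-parameter fit, mean of ≥2 experiments.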

Hep-G2 cells = assay: Cell cytotoxicity CC50; format: cell-based; conditions: mean of at least two experiments
[1] = Liver microsomal stability, rat; format: in vitro ADME; conditions: rat liver microsomes, 0.5 mg/mL protein, 1 μM compound, NADPH, >80% remaining at 45 min denoted >140; for half-life: pH 7.4, read-out: Liver Microsomal Stability: t1/2 (min), rat
Procedure, shortened: (§1)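 Pooled liver microsomes (0.5 mg/mL protein) in 0.1 M phosphate pH 7.4 with 1 μM compound (0.25% DMSO), started with 1 mM NADPH at 37° C; sampled 0-45 min, minus-NADPH control 45 min. LC-MS/MS depletion slope gave t1/2 and CLint.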

[2] = Liver microsomal stability, dog; format: in vitro ADME; conditions: dog liver microsomes, 0.5 mg/mL protein, 1 μM compound, NADPH, >80% remaining at 45 min denoted >140; for half-life: pH 7.4, read-out: Liver Microsomal Stability: t1/2 (min), dog
Procedure, shortened: as §1

[3] = Liver microsomal stability, human; format: in vitro ADME; conditions: human liver microsomes, 0.5 mg/mL protein, 1 μM compound, NADPH, >80% remaining at 45 min denoted >140; for half-life: pH 7.4, read-out: Liver Microsomal Stability: t1/2 (min), human
Procedure, shortened: as §1

Cell cytotoxicity CC50 = format: cell-based; conditions: human; mean of at least two experiments
[4] = Liver hepatocyte stability, rat; format: in vitro ADME; conditions: rat hepatocytes, 3 μM compound, 60 min, >80% remaining at 60 min denoted >186, read-out: Liver Hepatocyte Stability: t1/2 (min)
Protocol: (§2) Cryopreserved pooled hepatocytes were purchased from a reputable commercial supplier and stored in liquid nitrogen prior to use. Williams E media supplemented with 2 mM L-glutamine and 25 mM HEPES and test compound (final substrate concentration 3 μM; final DMSO concentration 0.25%) are pre-incubated at 37° C. prior to the addition of a suspension of cryopreserved hepatocytes (final cell density 0.5×10^6 viable cells/mL in Williams E media supplemented with 2 mM L-glutamine and 25 mM HEPES) to initiate the reaction. The final incubation volume is 500 μL. Two control compounds were included with each species, alongside appropriate vehicle control. The reactions are stopped by transferring 50 μL of incubate to 100 μL acetonitrile containing internal standard at the appropriate time points. Samples were removed at 6 time points (0, 5, 15, 30, 45 and 60 min) over the course of a 60 min experiment. The termination plates are centrifuged at 2500 rpm at 4° C. for 30 min to precipitate the protein. Following protein precipitation, the sample supernatants were combined in cassettes of up to 4 compounds and analysed using generic LC-MS/MS conditions. From a plot of ln peak area ratio (compound peak area/internal standard peak area) against time, the gradient of the line is determined. Subsequently, half-life (t1/2) and intrinsic clearance (CLint) were calculated.

[5] = Liver hepatocyte stability, dog; format: in vitro ADME; conditions: dog hepatocytes, 3 μM compound, 60 min, >80% remaining at 60 min denoted >186, read-out: Liver Hepatocyte Stability: t1/2 (min)
Protocol: as §2

[6] = Liver hepatocyte stability, human; format: in vitro ADME; conditions: human hepatocytes, 3 μM compound, 60 min, >80% remaining at 60 min denoted >186, read-out: Liver Hepatocyte Stability: t1/2 (min)
Protocol: as §2

[7] = Rat pharmacokinetics in vivo; conditions: male Sprague Dawley rats; for C 8 h / Cmax: doses 1 mg/kg (IV) and 10 mg/kg (PO); for Vd / clearance / bioavailability / half-life / AUC(0-t) / Cmax: rat, in vivo; for AUC(0-t): read-out: PO AUClast
Protocol: The pharmacokinetics of compounds were studied in vivo in rats at doses of 1 mg/kg (IV) and 10 mg/kg (PO).
Male rats (Sprague Dawley) surgically prepared with a jugular vein cannula were treated with experimental compounds via intravenous administration (IV; n=3; 1 mg/kg) or oral administration (PO; n=3; 10 mg/kg). Compounds were formulated as a solution in 40:60 dimethylacetamide:saline (IV administration), a suspension in 1% methyl cellulose (viscosity: 15 cP), 0.1% Tween80 in water (PO administration: Example 3), a solution in 10% DMSO/10% Cremaphor/80% water (PO administration: Examples 4, 11, 21, 23, 25, 26, 32) or a solution in 10% DMSO/20% Cremaphor/70% water (PO administration: Examples 19, 20, 22, 24, 30). […] Serial blood samples were collected via the cannula at 0.02, 0.08, 0.25, 0.5, 1, 2, 4, 6, 8 and 24 h post IV dosing of compound, and at 0.08, 0.25, 0.5, 1, 2, 4, 6, 8 and 24 h post oral dosing of compound, and plasma was prepared by centrifugation and stored immediately at −80° C. Samples were subsequently thawed, prepared for analysis by protein precipitation with acetonitrile, and analysed by tandem LCMS using electrospray ionisation using a matrix-matched calibration curve. PK parameters were calculated from the resulting data.

RSV = conditions: Antimicrobial Agents and Chemotherapy, September 2007, 3346-3353; cited from earlier work
[8] = human respiratory syncytial virus, HepG2
[9] = IV 1 mg/kg, read-out: IV t½ (converted)
[10] = PO 10 mg/kg, read-out: PO t½ (converted)

| Compound | EC50 (RSV A2; [8]) [µM] | CC50 (Cell cytotoxicity CC50) [µM] | half-life [1] [min] | half-life [2] [min] | half-life [3] [min] | half-life [4] [min] | half-life [5] [min] | half-life [6] [min] | C 8 h [7] [ng/mL] | Vd ([7]; IV 1 mg/kg) [L/kg] | clearance ([7]; IV 1 mg/kg) [mL/min/kg] | bioavailability ([7]; IV 1 mg/kg, PO 10 mg/kg) [%] | half-life [7, 9] [h] | AUC(0-t) ([7]; PO 10 mg/kg) [ng·h/mL] | half-life [7, 10] [h] | Cmax [7] [ng/mL] | other results |
| --- | --- | --- | --- | --- | --- | --- | --- | --- | --- | --- | --- | --- | --- | --- | --- | --- | --- |
| 3-[6-(Cyclopropylamino)-2-fluoropyridin-3-yl]-1-(oxetan-3-yl)-N-[(3S)-2-oxo-5-phenyl-1,3-dihydro-1,4-benzodiazepin-3-yl]pyrazole-4-carboxamide [Example 37] |  |  |  |  |  |  |  |  |  |  |  |  |  |  |  |  | EC50 (RSV A2): 0.078 µM; CC50 (Hep-G2 cells): > 25 µM |
| 3-[6-(Cyclopropylamino)-2-fluoropyridin-3-yl]-N-[(3S)-9-fluoro-2-oxo-5-phenyl-1,3-dihydro-1,4-benzodiazepin-3-yl]-1-(oxetan-3-yl)pyrazole-4-carboxamide [Example 36] |  |  |  |  |  |  |  |  |  |  |  |  |  |  |  |  | EC50 (RSV A2): 0.045 µM; CC50 (Hep-G2 cells): > 25 µM; Liver Microsomal Stability: t1/2 (min); rat [1]: 93.2 min; Liver Microsomal Stability: t1/2 (min); dog [2]: 191 min; Liver Microsomal Stability: t1/2 (min); human [3]: 68.5 min |
| CCn1cc(C(=O)N[C@H]2N=C(c3ccccc3)c3ccccc3NC2=O)c(-c2ccc(NC3CC3)nc2F)n1 [Example 25, 3-[6-(Cyclopropylamino)-2-fluoropyridin-3-yl]-1-ethyl-N-[(3S)-2-oxo-5-phenyl-1,3-dihydro-1,4-benzodiazepin-3-yl]pyrazole-4-carboxamide] | 0.049 | > 25 | 46.3 | 17 | 82.8 | > 186 | 68.1 | 506 | 294 | 0.9 | 15.9 | 71.5 | 1.3 | 7470 | 2.7 | 1150 |  |
| CCn1cc(C(=O)N[C@H]2N=C(c3ccccc3)c3cccc(F)c3NC2=O)c(-c2ccc(NC3CC3)nc2F)n1 [Example 26, 3-[6-(Cyclopropylamino)-2-fluoropyridin-3-yl]-1-ethyl-N-[(3S)-9-fluoro-2-oxo-5-phenyl-1,3-dihydro-1,4-benzodiazepin-3-yl]pyrazole-4-carboxamide] | 0.036 | > 25 | 70.2 | 30.8 | 84.9 | > 186 | 160 | > 186 | 919 | 1.1 | 8.2 | 95.6 | 2.6 | 19400 | 2.6 | 2120 |  |
| CC(C)(C)n1cc(C(=O)N[C@H]2N=C(c3ccccc3)c3cccc(F)c3NC2=O)c(-c2ccc(NC3CC3)nc2F)n1 [Example 30, 1-tert-Butyl-3-[6-(cyclopropylamino)-2-fluoropyridin-3-yl]-N-[(3S)-9-fluoro-2-oxo-5-phenyl-1,3-dihydro-1,4-benzodiazepin-3-yl]pyrazole-4-carboxamide] | 0.032 | > 25 | 53.1 | 63.7 | 253 | 98.5 | > 186 | 71.3 | 444 | 1.4 | 11.2 | 57 | 1.8 | 8540 | 3 | 918 |  |
| O=C(N[C@H]1N=C(c2ccccc2)c2cccc(F)c2NC1=O)c1cn(C2CCOCC2)nc1-c1ccc(NC2CC2)nc1F [Example 32, 3-[6-(Cyclopropylamino)-2-fluoropyridin-3-yl]-N-[(3S)-9-fluoro-2-oxo-5-phenyl-2,3-dihydro-1H-1,4-benzodiazepin-3-yl]-1-(oxan-4-yl)-1H-pyrazole-4-carboxamide] | 0.058 | > 25 | 127 | 331 | 298 | 376 | > 186 | > 186 | 84 | 1.1 | 17.7 | 19.3 | 1.2 | 1940 | 5.2 | 452 |  |
| O=C(Nc1ccccc1F)N[C@H]1N=C(c2ccccc2)c2ccccc2NC1=O [RSV604] |  |  |  |  |  |  |  |  |  |  |  |  |  |  |  |  | anti-RSV activity (RSV): sub-micromolar |

Reference: patent publication US20220409629A1, “BENZODIAZEPINE DERIVATIVES FOR TREATING A RESPIRATORY SYNCYTIAL VIRUS (RSV) INFECTION” (priority 2019, published 2022)
